The values below come from patent publication US9926282B2, “Phthalazinones and isoquinolinones as rock inhibitors” (BRISTOL-MYERS SQUIBB COMPANY, priority 2013, dated 2018).

One assay addresses ROCK1 (Homo sapiens (Human), UniProt Q13464). Kind of assay: ROCK assay (LABCHIP peptide phosphorylation), ROCK1. The format is biochemical. Particulars: 5 μM ATP, 1.5 μM peptide substrate; read-out: ROCK1 IC50.
In the next assay the target is ROCK2 (Homo sapiens (Human), UniProt O75116). Kind of assay: ROCK assay (LABCHIP peptide phosphorylation), ROCK2. The format is biochemical. Conditions: 5 μM ATP, 1.5 μM peptide substrate.
Chain of ROCK2 (O75116 whole entry, species assumed): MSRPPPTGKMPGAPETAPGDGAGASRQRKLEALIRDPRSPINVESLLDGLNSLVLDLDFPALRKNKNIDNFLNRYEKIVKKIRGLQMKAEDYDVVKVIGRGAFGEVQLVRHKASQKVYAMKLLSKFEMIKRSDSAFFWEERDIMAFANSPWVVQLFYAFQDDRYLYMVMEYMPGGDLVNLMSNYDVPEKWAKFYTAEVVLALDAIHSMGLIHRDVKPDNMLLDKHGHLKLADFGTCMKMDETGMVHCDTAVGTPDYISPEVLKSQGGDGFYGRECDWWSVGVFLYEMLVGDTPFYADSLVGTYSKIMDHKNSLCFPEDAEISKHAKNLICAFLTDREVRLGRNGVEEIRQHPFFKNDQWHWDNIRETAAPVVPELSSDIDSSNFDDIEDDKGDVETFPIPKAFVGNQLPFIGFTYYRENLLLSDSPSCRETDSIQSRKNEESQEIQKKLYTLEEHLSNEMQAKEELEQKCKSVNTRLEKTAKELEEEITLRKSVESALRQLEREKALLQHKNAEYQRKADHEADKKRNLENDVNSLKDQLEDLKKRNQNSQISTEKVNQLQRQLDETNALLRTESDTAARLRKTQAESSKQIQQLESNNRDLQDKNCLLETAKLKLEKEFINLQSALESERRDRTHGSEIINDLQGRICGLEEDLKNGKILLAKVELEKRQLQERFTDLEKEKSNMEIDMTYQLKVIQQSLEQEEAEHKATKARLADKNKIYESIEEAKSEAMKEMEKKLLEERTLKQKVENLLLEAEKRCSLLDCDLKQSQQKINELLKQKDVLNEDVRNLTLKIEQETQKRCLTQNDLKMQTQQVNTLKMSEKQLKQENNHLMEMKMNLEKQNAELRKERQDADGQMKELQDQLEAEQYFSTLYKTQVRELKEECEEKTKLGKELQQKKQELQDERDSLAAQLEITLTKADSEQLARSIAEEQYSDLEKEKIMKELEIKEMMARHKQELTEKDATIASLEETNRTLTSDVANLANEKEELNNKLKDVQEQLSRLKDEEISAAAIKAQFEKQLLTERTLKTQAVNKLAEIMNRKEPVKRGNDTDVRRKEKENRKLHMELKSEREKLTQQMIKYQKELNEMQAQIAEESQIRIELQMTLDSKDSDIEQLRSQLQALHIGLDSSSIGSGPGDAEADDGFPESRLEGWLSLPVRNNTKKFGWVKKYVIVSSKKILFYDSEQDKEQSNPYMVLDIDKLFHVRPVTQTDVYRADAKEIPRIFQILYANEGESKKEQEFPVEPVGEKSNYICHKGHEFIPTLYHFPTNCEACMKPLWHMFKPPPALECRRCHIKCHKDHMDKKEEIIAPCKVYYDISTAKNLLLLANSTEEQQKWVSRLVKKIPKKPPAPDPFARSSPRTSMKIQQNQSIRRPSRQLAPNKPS

Chain of ROCK1 (Q13464 whole entry, species assumed): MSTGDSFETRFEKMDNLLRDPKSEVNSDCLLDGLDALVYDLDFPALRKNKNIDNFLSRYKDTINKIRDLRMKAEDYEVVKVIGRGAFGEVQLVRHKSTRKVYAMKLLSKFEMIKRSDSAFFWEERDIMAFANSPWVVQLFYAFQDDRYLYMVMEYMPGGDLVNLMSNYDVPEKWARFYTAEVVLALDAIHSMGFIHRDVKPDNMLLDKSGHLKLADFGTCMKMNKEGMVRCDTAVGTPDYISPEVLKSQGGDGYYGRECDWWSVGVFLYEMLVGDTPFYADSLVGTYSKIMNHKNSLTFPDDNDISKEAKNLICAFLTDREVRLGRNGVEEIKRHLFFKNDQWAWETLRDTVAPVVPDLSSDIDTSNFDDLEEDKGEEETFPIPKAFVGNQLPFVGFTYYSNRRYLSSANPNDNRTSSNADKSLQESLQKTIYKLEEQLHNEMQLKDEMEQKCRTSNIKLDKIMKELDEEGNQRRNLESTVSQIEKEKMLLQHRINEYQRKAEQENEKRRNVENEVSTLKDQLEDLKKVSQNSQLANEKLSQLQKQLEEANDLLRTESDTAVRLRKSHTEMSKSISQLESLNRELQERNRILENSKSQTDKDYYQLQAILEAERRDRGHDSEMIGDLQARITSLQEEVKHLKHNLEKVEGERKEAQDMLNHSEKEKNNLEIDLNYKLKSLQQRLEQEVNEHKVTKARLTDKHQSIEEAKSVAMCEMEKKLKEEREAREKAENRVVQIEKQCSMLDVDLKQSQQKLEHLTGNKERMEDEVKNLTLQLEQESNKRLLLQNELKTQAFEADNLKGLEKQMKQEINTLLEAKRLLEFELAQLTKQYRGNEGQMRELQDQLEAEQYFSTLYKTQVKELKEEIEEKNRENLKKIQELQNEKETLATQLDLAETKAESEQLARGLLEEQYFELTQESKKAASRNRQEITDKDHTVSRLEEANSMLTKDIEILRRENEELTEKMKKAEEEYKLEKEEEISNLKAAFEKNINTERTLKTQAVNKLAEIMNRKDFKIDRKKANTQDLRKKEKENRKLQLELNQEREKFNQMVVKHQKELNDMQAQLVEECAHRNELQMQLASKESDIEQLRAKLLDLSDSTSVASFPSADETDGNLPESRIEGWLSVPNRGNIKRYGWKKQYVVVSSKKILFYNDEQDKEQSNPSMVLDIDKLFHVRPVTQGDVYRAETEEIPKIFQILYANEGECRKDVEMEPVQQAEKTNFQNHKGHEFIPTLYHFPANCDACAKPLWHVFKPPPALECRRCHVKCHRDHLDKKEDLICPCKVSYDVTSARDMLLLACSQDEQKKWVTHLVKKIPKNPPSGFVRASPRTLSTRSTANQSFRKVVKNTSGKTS

As for `COc1ccccc1-n1cc(C(=O)Nc2ccc(-c3n[nH]c(=O)c4ccccc34)cc2)cn1` [Example 197, 1-(2-methoxyphenyl)-N-[4-(4-oxo-3,4-dihydrophthalazin-1-yl)phenyl]-1H-pyrazole-4-carboxamide], the IC50 on ROCK1 and at ROCK2 was 0.1 to 100 nM each time.

With `Cc1oc2ccc(OCc3ccccc3)cc2c1C(=O)Nc1ccc(-c2n[nH]c(=O)c3ccccc23)cc1` [Example 105, 5-(benzyloxy)-2-methyl-N-[4-(4-oxo-3,4-dihydrophthalazin-1-yl)phenyl]-1-benzofuran-3-carboxamide], the figures for the IC50 on ROCK1 and against ROCK2 were 101 to 1000 nM and 0.1 to 100 nM, respectively.

In the case of `Cc1c(C(=O)Nc2ccc(-c3n[nH]c(=O)c4ccccc34)cc2)nnn1-c1ccccc1` [Example 400, 5-Methyl-N-(4-(4-oxo-3,4-dihydrophthalazin-1-yl)phenyl)-1-phenyl-1H-1,2,3-triazole-4-carboxamide], the IC50 on ROCK1 and on ROCK2 was 0.1 to 100 nM in each case.

On to `COC(=O)COc1ccc2c(c1)N(C(=O)Cc1ccc(-c3n[nH]c(=O)c4ccccc34)cc1)CC2` [Example 283, methyl 2-[(1-{2-[4-(4-oxo-3,4-dihydrophthalazin-1-yl)phenyl]acetyl}-2,3-dihydro-1H-indol-6-yl)oxy]acetate], for which the IC50 at ROCK1 and against ROCK2 was 0.1 to 100 nM throughout.

In the case of `Cc1cc(NC(=O)c2cnn3ccccc23)ccc1-c1n[nH]c(=O)c2ccccc12` [Example 310, N-[3-methyl-4-(4-oxo-3,4-dihydrophthalazin-1-yl)phenyl]pyrazolo [1,5-a]pyridine-3-carboxamide], the IC50 on ROCK1 lay in the range of 101 to 1000 nM; at ROCK2 it was 0.1 to 100 nM.

Consider `COc1ccc2[nH]c(C(=O)Nc3ccc(-c4n[nH]c(=O)c5ccccc45)cc3)cc2c1` [Example 125, 5-methoxy-N-[4-(4-oxo-3,4-dihydrophthalazin-1-yl)phenyl]-1H-indole-2-carboxamide], for which the IC50 on ROCK1 and against ROCK2 was 0.1 to 100 nM throughout.

In the case of `COc1cccc(-n2cc(C(=O)Nc3ccc(-c4n[nH]c(=O)c5ccccc45)cc3)nn2)c1` [Example 404, 1-(3-Methoxyphenyl)-N-(4-(4-oxo-3,4-dihydrophthalazin-1-yl)phenyl)-1H-1,2,3-triazole-4-carboxamide], the IC50 at ROCK1 and at ROCK2 was 0.1 to 100 nM throughout.

Regarding `O=C(Nc1ccc(-c2n[nH]c(=O)c3ccccc23)cc1)c1cnn(-c2ccccc2)c1Cl` [Example 199, 5-chloro-N-[4-(4-oxo-3,4-dihydrophthalazin-1-yl)phenyl]-1-phenyl-1H-pyrazole-4-carboxamide], the IC50 at ROCK1 and on ROCK2 was 0.1 to 100 nM throughout.

Regarding `CC(C)(C)OC(=O)N1CC(Cn2nc(C(=O)Nc3ccc(-c4n[nH]c(=O)c5ccccc45)c(Cl)c3)c3ccccc32)C1` [Example 316, tert-butyl 3-[(3-{[3-chloro-4-(4-oxo-3,4-dihydrophthalazin-1-yl)phenyl]carbamoyl}-1H-indazol-1-yl)methyl] azetidine-1-carboxylate], the IC50 on ROCK1 is 101 to 1000 nM; at ROCK2, 0.1 to 100 nM.

Consider `O=C(Cc1ccc(-c2n[nH]c(=O)c3ccccc23)cc1)Nc1nc2ccccc2[nH]1` [Example 9, N-(1H-1,3-benzodiazol-2-yl)-2-[4-(4-oxo-3,4-dihydrophthalazin-1-yl)phenyl]acetamide], for which the results for the IC50 on ROCK1 and at ROCK2 were 1000 to 50000 nM and 0.1 to 100 nM, respectively.

`COc1ccc2c(C(=O)Nc3ccc(-c4n[nH]c(=O)c5ccccc45)cc3)cnn2c1` [Example 141, 6-methoxy-N-[4-(4-oxo-3,4-dihydrophthalazin-1-yl)phenyl]pyrazolo[1,5-a]pyridine-3-carboxamide]: the IC50 at ROCK1 and on ROCK2 was 0.1 to 100 nM each time.

`O=C(Cc1ccc(-c2n[nH]c(=O)c3ccccc23)c(F)c1)N1CCc2ccccc21` [Example 261, 4-(2-Fluoro-4-(2-(indolin-1-yl)-2-oxoethyl)phenyl)phthalazin-1(2H)-one]: the IC50 at ROCK1 and at ROCK2 was 0.1 to 100 nM throughout.

For the molecule `O=C(Nc1ccc(-c2n[nH]c(=O)c3ccccc23)cc1)c1nn(CCO)c2ccccc12` [Example 155, 1-(2-hydroxyethyl)-N-[4-(4-oxo-3,4-dihydrophthalazin-1-yl)phenyl]-1H-indazole-3-carboxamide], the IC50 on ROCK1 and at ROCK2 was 0.1 to 100 nM throughout.

Take `CC(=O)N1CC(Cn2nc(C(=O)Nc3ccc(-c4n[nH]c(=O)c5ccccc45)c(Cl)c3)c3ccccc32)C1` [Example 329, 1-((1-Acetylazetidin-3-yl)methyl)-N-(3-chloro-4-(4-oxo-3,4-dihydrophthalazin-1-yl)phenyl)-1H-indazole-3-carboxamide]: the concentration for half-maximal inhibition (IC50) at ROCK1 and on ROCK2 was 0.1 to 100 nM in each case.

On to `CC(C)(O)Cn1nc(C(=O)Nc2ccc(-c3n[nH]c(=O)c4ccccc34)cc2)c2ccccc21` [Example 137, 1-(2-hydroxy-2-methylpropyl)-N-[4-(4-oxo-3,4-dihydrophthalazin-1-yl)phenyl]-1H-indazole-3-carboxamide], for which the IC50 on ROCK1 and against ROCK2 was 0.1 to 100 nM throughout.

As for `Cc1cc(C(=O)Nc2ccc(-c3n[nH]c(=O)c4ccccc34)cc2)nn1C` [Example 205, 1,5-dimethyl-N-[4-(4-oxo-3,4-dihydrophthalazin-1-yl)phenyl]-1H-pyrazole-3-carboxamide], the IC50 on ROCK1 was in the range of 101 to 1000 nM; against ROCK2, 0.1 to 100 nM.

On to `O=C(Nc1ccc(-c2n[nH]c(=O)c3ccccc23)cc1)c1ccn(-c2ccccc2)n1` [Example 226, N-[4-(4-oxo-3,4-dihydrophthalazin-1-yl)phenyl]-1-phenyl-1H-pyrazole-3-carboxamide], for which the IC50 on ROCK1 and against ROCK2 was 0.1 to 100 nM each time.

Take `O=C(Nc1ccc(-c2n[nH]c(=O)c3ccccc23)cc1)C1CCN(c2ccccc2)C1=O` (centres unmarked) [Example 215, 2-oxo-N-[4-(4-oxo-3,4-dihydrophthalazin-1-yl)phenyl]-1-phenylpyrrolidine-3-carboxamide]: the IC50 on ROCK1 and against ROCK2 was 101 to 1000 nM in each case.

With `CC(C)n1nc(C(=O)Nc2ccc(-c3n[nH]c(=O)c4ccccc34)cc2)c2ccccc21` [Example 132, N-[4-(4-oxo-3,4-dihydrophthalazin-1-yl)phenyl]-1-(propan-2-yl)-1H-indazole-3-carboxamide], the concentration for half-maximal inhibition (IC50) on ROCK1 and against ROCK2 was 0.1 to 100 nM in each case.

`O=C(Cc1ccc(-c2n[nH]c(=O)c3ccccc23)cc1)NCC1CC1` [Example 14, N-(cyclopropylmethyl)-2-[4-(4-oxo-3,4-dihydrophthalazin-1-yl)phenyl]acetamide]: the IC50 at ROCK1 and on ROCK2 was 1000 to 50000 nM in each case.

For `CC(C(=O)N1Cc2ccccc2C1)c1ccc(-c2n[nH]c(=O)c3ccccc23)cc1` (centres unmarked) [Example 43, 4-(4-(1-(Isoindolin-2-yl)-1-oxopropan-2-yl)phenyl)phthalazin-1(2H)-one], the values for the IC50 at ROCK1 and on ROCK2 were 1000 to 50000 nM and 101 to 1000 nM, respectively.

With `O=C(Nc1ccc(-c2n[nH]c(=O)c3ccccc23)cc1)c1cnn(-c2ccccc2Cl)c1` [Example 220, 1-(2-chlorophenyl)-N-[4-(4-oxo-3,4-dihydrophthalazin-1-yl)phenyl]-1H-pyrazole-4-carboxamide], the IC50 at ROCK1 and at ROCK2 was 0.1 to 100 nM in each case.

One may read the IC50 as the midpoint of a concentration-inhibition curve.
